Assay results from patent US20110256241A1, “METHODS AND COMPOSITIONS FOR THE TREATMENT OF CANCER” (TRASLATIONAL CANCER DRUGS PHARMA, S.L., priority 2008, published 2011).
Where two headings read alike, the source gives them in different places.

Experiments:
[1] = tested on: primary cultures of tumours of patients with NSCLC; assay: Primary cultures of NSCLC tumours, crystal violet quantification; format: cell-based, human; settings: primary NSCLC tumour cultures, 0-20 μM, 10 days
Procedure: Resected tissues from NSCLC patients were dissociated (Cell dissociation sieve-tissued grinder Kit CD1, SIGMA), and the obtained cells were seeded in 24 well plates (BD, Falcon, Bioscience, San Jose, Calif., USA). […] The final persistent population in each well was quantified by the method of Cristal Violet as previously described (Rodríguez-González, A. et al., Oncogene, 22:8803-8812). […]

SW620 cells = assay: MTT cytotoxicity, ChoKI and TRAIL
Procedure: For this purpose, cells were seeded in 96 multiwell plates at a density of 1×10^4 cells/well 24 hours before treatment. Cells were treated with different concentrations of RSM-932A (ChoKI) or TRAIL for different times and the cell proliferation was quantified using the MTT [3-(4,5-Dimethylthiazol-2-yl)-2,5-Diphenyltetrazolium Bromide] colorimetric assay.

H460 cells [2] = assay: Affymetrix gene expression analysis of 5-FU metabolization pathway; format: cell-based, human; set-up: key to RRM2 (Ribonucleotide Reductase) gene expression / TYMS (Thymidylate synthetase) gene expression / DUT (Deoxyuridine triphosphatase) gene expression: Signal Log Ratio, base 2 (1.0 = 2-fold increase, 0 = no change)
Procedure: The RNAs from the biopsies selected were isolated for microarrays and QT-PCR, using RNeasy Mini Kit (QIAGEN, Hilden, Germany) following the instructions of the manufactures. Samples were prepared and the array hybridized according to the Affymetrix GeneChip Expression Analysis Technical Manual. Hybridization to Affymetrix U133plus2 GeneChips (54,614 probe sets, representing 47,000 transcripts), staining, washing and scanning procedures were carried out at the Genomic Facility in the National Center of Biotechnology (Madrid, Spain) as described in www.affymetrix.com (Affymetrix, Santa Clara, Calif.). The Signal Log Ratio estimates the magnitude and direction of change of a transcript. The log scale used is base 2, thus a Signal Log Ratio of 1.0 indicates an increase of the transcript level by 2 fold and −1.0 indicates a decrease by 2 fold. A Signal Log Ratio of zero would indicate no change.
With the aim of further investigating the mechanism of ChoKIs sensitization to the antitumoral effect of 5-FU, a gene expression analysis of the 5-FU-metabolisation pathway was performed in H460 cells treated at different times with MN58b and RSM-932A using affymetrix technology.

H460 xenografts = assay: NSCLC xenografts, in vivo tumor growth inhibition
Procedure: Indicated cells were resuspended in DMEM just before inoculation (10^6 cells/0.1 ml), and injected subcutaneously in nu/nu immunosuppressed mice. Mice were kept under standard laboratory conditions according to the guidelines of the Spanish Government. When tumours reached a mean volume of 0.1 cm^3, mice were randomized to control and treated groups. Treatments with the antitumoral agents (and vehicle for control mice) were performed i.p. with following the indicated schedules. Tumors were monitored three times a week by measuring the major (D) and minor (d) diameters, and tumour volume was calculated by V=(D*d^2)/2. Statistical analysis of significant changes in tumour growth was calculated using SPSS software v. 13.0.

HT29 colon cancer cells = assay: QT-PCR validation of 5-FU metabolization pathway genes; format: cell-based, human; set-up: key: DR (Down-regulation); UR (Up-regulation)
Procedure: (§1) 1 μg of RNA was used to generate cDNA using High-Capacity cDNA Archive Kit (Applied Biosystems), and quantitative real-time PCR was carried out in triplicate using the ABI PRISM 7700 Sequence Detector (Applied Biosystems). GAPDH and 18S ribosomal mRNA were amplified as internal controls. Probes used for amplification were from Applied Biosystems as Taqman Gene Expression Assays (ASAH1: HS00602774—M1 Taqman Probe, ASAH2: HS00184096_M1 Taqman Probe and ASAH3: HS00370322_M1 Taqman Probe, DUT: HS00798995_S1 Taqman Probe, TYMS: HS00426591_M1 Taqman Probe, UPP1: HS00427695—M1 Taqman Probe, RRM2: HS00357247_G1 Taqman Probe). The 2-^ΔΔCt method was used (Livak K J., Methods. 2001; 25:402-8) to calculate the relative expression of each gene.

DLD-1 colon cancer cells = assay: as above; format: cell-based, human; set-up: key: DR (Down-regulation); UR (Up-regulation)
Procedure: as §1

SW62 colon cancer cells = assay: as above; format: cell-based, human; set-up: key: DR (Down-regulation); UR (Up-regulation)
Procedure: as §1

H460 cells [3] = assay: Cell proliferation assay (MTT); format: cell-based, human
Procedure: All cell lines used in this study were maintained under standard conditions of temperature (37° C.), humidity (95%), and carbon dioxide (5%). Human primary bronchial epithelial cells, NHBE (BEC) (Cambrex, CC-2541) were grown in BEGM (Bronchial Epithelial cell growth media) BulletKit (Cambrex, CC-3170). Human primary mammary epithelial cells, HMEC (Clonetics, CC-2551) were grown in MEBM medium supplemented with a bullet kit (Clonetics, CC-3150). Epithelial non-small lung cancer cells H460 and H1299, and small cell lung cancer cell lines H510 and H82 were maintained in RPMI supplemented with 10% Fetal Bovine Serum (FBS) (Life Technologies, Grand Island, N.Y.).
(§2) Cells were seeded on 96-well plates (BD, Falcon, Bioscience, San Jose, Calif., USA) at a density of 6000 cells/well, and incubated for 24 h under standard conditions. Then, cells were treated with different concentrations of the ChoK inhibitors (quadruplicates of each concentration) and maintained for 72 hours. […] Absorbance is read at 595 nm in a VersaMax Microplate Reader (Molecular Devices, Sunnyvale, Calif., USA). For sensitization with acid ceramidase inhibitor, cells were pre-treated […] with the correspondent IC50 for NOE before treatment with ChoK inhibitors. NOE (N-Oleoyl ethanolamine) was obtained from Calbiochem (La Jolla, Calif., USA).
Thus, disruption in the levels of acid ceramidase may allow ChoK inhibitors to have a better effect in these cells. To verify this hypothesis, we used the previously characterized acid ceramidase inhibitor, N-Oleoylethanolamine (NOE) (Grijalvo S., Chem Phys Lipids. 2006; 144:69-84), to investigate if the inhibition of acid ceramidase sensitizes tumour cell lines to ChoK inhibitors. To that end, H460 cells were pre-treated with NOE for three hours to inhibit acid ceramidase.
H460 cells were pre-treated with these compounds for three hours to inhibit ceramidases. […] Furthermore, the combined use of ChoK inhibitors and acid ceramidase inhibitors provides a further stronger anticancer activity.

H460 RSM-932AR cells = assay: Cell proliferation assay (MTT); format: cell-based, human
Procedure: (§3) Cell lines resistant to MN58b and RSM-932A (identified as MN58R and RSM-932A-R, respectively) were generated by prolonged continuous exposure to increasing concentrations of each drug. A parallel control (H460 stock) of the cell line in the absence of the compounds was kept in culture for the same time.
as §2
(§4) To further study the mechanism underlying resistance to ChoK inhibition, as well as the implication of acid ceramidase in this effect, we used the human NSCLC-derived H460 cell line for a set of in vitro experiments. Maintaining this cell line in culture for 9 months with slightly increasing doses cycles of MN58b and a second-generation ChoKα inhibitor, RSM-932A, we established new cell lines with acquired resistance to these ChoKα inhibitors. A control cell line (H460 stock) was also established maintaining H460 in culture for the same time without treatment. Thus, established cells resistant to MN58b (H460 MN58R) and resistant to RSM-932A (H460 RSM-932A-R) were not affected at concentrations where normal H460 cells or control H460stock cells were dramatically affected. […] Furthermore, we found a strong cross-resistance between both ChoK inhibitors as it could be expected due to the similar mechanisms of action of these two antitumoral drugs (Table 9).

H460 MN58R cells = assay: Cell proliferation assay (MTT); format: cell-based, human
Procedure: as §3, §2, §4

H460stock cells = assay: Cell proliferation assay (MTT); format: cell-based, human
Procedure: as §3, §2, §4

DLD-1 cells = assay: Apoptosis detection by flow cytometry, Annexin V & IP; format: cell-based, human; settings: DLD-1, 7 hours treatment
Procedure: Cell death was analysed by flow cytometry using de Aposcreen Annexin V Apoptosis Kit (Southern Biotech) according to manufacturer procedures. Cells were seeded at 4×10^5 cells per well in six-well. Twenty-four hours later, cells were treated with the indicated compounds. Cells were rinsed twice in cold PBS and after removing it cells were resuspended in cold 1× binding buffer to a concentration from 1×10^6 to 1×10^7 cells/mL. 100 μl of these cells were collected in a flow cytometry tube and 10 μl of Annexin V were added. After gently vortexing, tubes were incubated for 15 minutes on ice, protected from light. Without washing, 380 μl of 1× binding buffer were added to each sample prior to 10 μl of propidium iodine. Cells were immediately analysed by flow cytometry.
The synergism observed in vitro was also analysed by flow cytometry using Annexin V & IP staining to distinguish between apoptosis and necrosis or late apoptosis. […] When DLD-1 cells are treated with TRAIL alone there is a 35% of apoptosis. In combination tumour cell death is amplified up to 50%. When DLD-1 are treated with RSM-932A (TCD-717) in combination with TRAIL there is a 55% increase in tumour cell death but mainly the necrotic or late apoptosis population because RSM-932A (TCD-717) has an effect that is faster than MN58. […]

[4] = FIG. 7B, combination given sequentially

## Nc1ccn([C@@H]2O[C@H](CO)[C@@H](O)C2(F)F)c(=O)n1 [Gemcitabine, gemcitabine]
[1]
  RESISTANT (number of samples): 34
  SENSITIVES (number of samples): 18

## CN(c1ccc(Cl)cc1)c1cc[n+](Cc2ccc(-c3ccc(C[n+]4ccc(N(C)c5ccc(Cl)cc5)c5ccccc54)cc3)cc2)c2ccccc12.[Br-].[Br-] [RSM-932A, 1,1′-(biphenyl-4, 4′-diylmethylene) bis[4-(4-chloro-N-methylanilino-)quinolinium]dibromide]
SW620 cells; SW620, combination: ChoKI pre-treatment 2 hours, then TRAIL 24 h
  cytotoxicity, percentage of cell death: 9%
H460 cells [2]; H460, 9 h
  DUT (Deoxyuridine triphosphatase) gene expression: −1.12
  RRM2 (Ribonucleotide Reductase) gene expression: −1.39
  TYMS (Thymidylate synthetase) gene expression: −1.03
  UPP1 (Uridine phosphorylase 1) gene expression: +1.83
H460 cells [2]; H460, 24 h
  DUT (Deoxyuridine triphosphatase) gene expression: −2.08
  RRM2 (Ribonucleotide Reductase) gene expression: −3.69
  TYMS (Thymidylate synthetase) gene expression: −2.73
  UPP1 (Uridine phosphorylase 1) gene expression: +2.48
H460 xenografts; [4]
  Statistical significance (p), tumour growth: 0.157
HT29 colon cancer cells
  DUT expression: DR
  RRM expression: DR
  TYM expression: DR
  UPP expression: UR
DLD-1 colon cancer cells
  DUT expression: DR
  RRM expression: DR
  TYM expression: DR
  UPP expression: UR
SW62 colon cancer cells
  DUT expression: DR
  RRM expression: DR
  TYM expression: DR
  UPP expression: UR

## CCC1=C[C@@H]2CN(C1)Cc1c([nH]c3ccccc13)[C@@](C(=O)OC)(c1cc3c(cc1OC)N(C)[C@H]1[C@@](O)(C(=O)OC)[C@H](OC(C)=O)[C@]4(CC)C=CCN5CC[C@]31[C@@H]54)C2 [Vinolrelbine, vinorelbine]
[1]
  RESISTANT (number of samples): 24
  SENSITIVES (number of samples): 15

## CCCCCCCCCCCCCC(=O)N[C@H](C)[C@@H](O)c1ccccc1 [DEM, (1S,2R)-N-myristoylamino-phenylpropanol-1, reference compound]
H460 cells [3]; combinations: pre-treated with ceramidase inhibitor for three hours, then ChoK inhibitor, read-out: IC50 (72 h)
  IC 50: 31 µM

## N.N.[Cl][Pt][Cl] [Cisplatin, cisplatin, reference compound]
[1]
  RESISTANT (% of samples): 50%
  RESISTANT (number of samples): 31
  SENSITIVES (% of samples): 50%
  SENSITIVES (number of samples): 31
H460 xenografts; FIG. 7A, single agents
  Statistical significance (p), tumour growth: 0.3
H460 xenografts; [4]
  Statistical significance (p), tumour growth: 0.441
H460 RSM-932AR cells
  IC 50: 1.5 µg/mL
H460 MN58R cells
  IC 50: 2 µg/mL
H460stock cells
  IC 50: 4.5 µg/mL
H460 cells [3]
  IC 50: 5 µg/mL

## CC(=O)O[C@H]1C(=O)[C@@]2(C)[C@H]([C@H](OC(=O)c3ccccc3)[C@]3(O)C[C@H](OC(=O)[C@H](O)[C@@H](NC(=O)c4ccccc4)c4ccccc4)C(C)=C1C3(C)C)[C@]1(OC(C)=O)CO[C@@H]1C[C@@H]2O [Taxol]
[1]
  RESISTANT (number of samples): 35
  SENSITIVES (number of samples): 27

## CCCCCCCCCCCCCC(=O)N[C@H](CO)[C@H](O)c1ccc([N+](=O)[O-])cc1 [CAY, (1R,2R)-N-myristoylamino-4′-nitro-phenylpropandio1-1,3, reference compound]
H460 cells [3]; Homo sapiens, NCI-H460, combinations: pre-treated with ceramidase inhibitor for three hours, then ChoK inhibitor, read-out: IC50 (72 h)
  IC 50: 28 µM

B1: TRAIL: extracellular domain of human TRAIL (amino acids 95-281) (protein, listed as Homo sapiens)
chain: TSEETISTVQEKQQNISPLVRERGPQRVAAHITGTRGRSNTLSSPNSKNEKALGRKINSWESSRSGHSFLSNLHLRNGELVIHEKGFYYIYSQTYFRFQEEIKENTKNDKQMVQYIYKYTSYPDPILLMKSARNSCWSKDAEYGLYSIYQGGIFELKENDRIFVSVTNEHLIDMDHEASFFGAFLVG
SW620 cells; SW620, FIG. 8B
  sensitivity to TRAIL: nearly resistant
DLD-1 cells
  apoptosis: 35%
